Test results: patent publication US6495525B1, “VLA-4 inhibitor: oMePUPA-V” (Biogen, Inc., priority 1998, dated 2002)

What was measured:
[1] = target: T1, α4β1 (Homo sapiens, UniProt P05556+P13612); assay: LIBS induction on Jurkat cells with antibody 9EG7 (FACS); assay type: cell-based; conditions: 2 mM Mg+2 buffer, read-out: EC50 of LIBS epitope induction
T1 construct: endogenous in cells; host or cells: Jurkat (human T cell line)
Experimental: Jurkat cells (2×10^5/well) were preincubated at 37° C. for 20 minutes with TRIS-buffered saline containing 2 mM MgCl2 (Mg^+2-TBS) alone or with serial dilutions of test compounds. The samples were transferred to an ice bath and supplemented with LIBS antibody, 9EG7, at a final concentration of 10 μg/ml. The cells were washed twice with Mg^+2-TBS and resuspended in a 1:200 dilution of a FITC conjugated-goat anti-rat IgG in Mg^+2-TBS and incubated for 30 min at 4° C. The cells were washed twice and resuspended in Mg^+2-TBS. Mean fluorescence intensity (MFI) was determined by FACS analysis (Becton Dickinson FACScan). Results are expressed as MFI. Data were analyzed by Microsoft Excel v5.0 and Deltagraph v4.0 software.

[2] = target: VLA-4 (Homo sapiens, UniProt P05556+P13612); assay: VCAM-Ig Direct Binding Assay (DBA) on Jurkat cells; design: endogenous in cells; host or cells: Jurkat (human T cell line)
Sequence of VLA-4 (P13612 34-1032): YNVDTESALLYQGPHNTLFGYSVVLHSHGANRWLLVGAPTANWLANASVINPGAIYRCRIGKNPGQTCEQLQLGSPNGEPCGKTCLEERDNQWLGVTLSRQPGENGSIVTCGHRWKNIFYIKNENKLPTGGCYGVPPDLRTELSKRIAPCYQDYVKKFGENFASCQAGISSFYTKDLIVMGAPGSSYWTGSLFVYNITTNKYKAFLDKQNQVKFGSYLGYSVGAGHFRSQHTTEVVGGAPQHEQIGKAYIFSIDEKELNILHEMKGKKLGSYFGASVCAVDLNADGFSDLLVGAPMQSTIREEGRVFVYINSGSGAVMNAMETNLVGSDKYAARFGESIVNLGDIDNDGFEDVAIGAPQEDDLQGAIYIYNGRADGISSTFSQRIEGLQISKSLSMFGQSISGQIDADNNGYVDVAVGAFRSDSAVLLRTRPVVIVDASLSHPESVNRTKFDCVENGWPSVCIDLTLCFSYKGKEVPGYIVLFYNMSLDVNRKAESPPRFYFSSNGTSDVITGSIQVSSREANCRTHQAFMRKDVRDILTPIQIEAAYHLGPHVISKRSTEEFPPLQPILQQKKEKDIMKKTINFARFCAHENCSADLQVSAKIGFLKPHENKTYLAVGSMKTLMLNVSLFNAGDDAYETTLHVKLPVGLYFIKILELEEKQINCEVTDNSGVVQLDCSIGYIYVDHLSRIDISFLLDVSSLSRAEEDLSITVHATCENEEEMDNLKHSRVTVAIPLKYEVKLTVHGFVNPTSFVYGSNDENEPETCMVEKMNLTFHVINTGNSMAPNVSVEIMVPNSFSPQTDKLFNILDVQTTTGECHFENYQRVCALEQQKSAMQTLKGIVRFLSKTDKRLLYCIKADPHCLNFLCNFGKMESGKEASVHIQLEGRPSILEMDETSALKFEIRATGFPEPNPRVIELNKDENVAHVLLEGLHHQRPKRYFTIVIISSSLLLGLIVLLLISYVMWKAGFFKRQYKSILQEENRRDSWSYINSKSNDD
Sequence of VLA-4 (P05556 21-798): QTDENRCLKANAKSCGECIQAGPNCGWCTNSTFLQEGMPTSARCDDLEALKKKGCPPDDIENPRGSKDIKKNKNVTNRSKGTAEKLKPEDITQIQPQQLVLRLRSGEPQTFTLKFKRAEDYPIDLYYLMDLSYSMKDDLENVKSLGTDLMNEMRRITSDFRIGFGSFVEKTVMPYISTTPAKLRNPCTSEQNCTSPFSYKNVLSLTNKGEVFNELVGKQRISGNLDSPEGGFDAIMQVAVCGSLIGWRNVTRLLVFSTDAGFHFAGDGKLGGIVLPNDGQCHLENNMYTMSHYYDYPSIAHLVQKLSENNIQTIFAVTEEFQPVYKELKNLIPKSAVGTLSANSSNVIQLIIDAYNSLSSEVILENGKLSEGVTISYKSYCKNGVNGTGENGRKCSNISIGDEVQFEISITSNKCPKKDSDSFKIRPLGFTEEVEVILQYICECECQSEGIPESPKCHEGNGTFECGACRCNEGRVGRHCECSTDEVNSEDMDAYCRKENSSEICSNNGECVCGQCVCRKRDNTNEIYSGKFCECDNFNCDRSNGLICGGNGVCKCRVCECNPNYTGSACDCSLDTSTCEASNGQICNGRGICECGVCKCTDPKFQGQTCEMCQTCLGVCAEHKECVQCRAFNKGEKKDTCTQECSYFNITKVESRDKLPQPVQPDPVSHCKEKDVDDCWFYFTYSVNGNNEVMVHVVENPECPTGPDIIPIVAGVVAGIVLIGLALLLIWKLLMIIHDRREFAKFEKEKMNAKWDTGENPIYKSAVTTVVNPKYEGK
From the text: A direct binding assay may also be employed to quantitate the inhibitory activity of the compounds of this invention. In this assay, a VCAM-IgG fusion protein containing the first two immunoglobulin domains of VCAM (D1D2) attached above the hinge region of an IgG1 molecule (“VCAM 2D-IgG”), is conjugated to a marker enzyme, such as alkaline phosphatase (“AP”). The synthesis of this VCAM-IgG fusion is described in PCT publication WO 90/13300, the disclosure of which is herein incorporated by reference. The conjugation of that fusion to a marker enzyme is achieved by cross-linking methods well-known in the art.
The VCAM-IgG enzyme conjugate is then placed in the wells of a multi-well filtration plate, such as that contained in the Millipore Multiscreen Assay System (Millipore Corp., Bedford, Ma.). Varying concentrations of the test inhibitory compound are then added to the wells followed by addition of VLA-4-expressing cells. […]
Following incubation, the wells are vacuum drained, leaving behind the cells and any bound VCAM. Quantitation of bound VCAM is determined by adding an appropriate colorimetric substrate for the enzyme conjugated to VCAM-IgG and determining the amount of reaction product. […]
VCAM-Ig was constructed and purified as published (Jakubowski, A. et al. Cell Adhesion and Communication 3:131-142, 1995). […] Binding to VLA-4 was assessed on the human T cell line, Jurkat (α4β1). […]

T1 sequence (P13612 34-1032): as the sequence (P13612 34-1032) above
T1 sequence (P05556 21-798): as the sequence (P05556 21-798) above

**Q.** Which results are given for `Cc1ccccc1NC(=O)Nc1ccc(CC(=O)N2CCC[C@H]2C(=O)N[C@H](C)CC(=O)O)cc1` [oMePUPA-V]?
**A.** EC50 [1]: ~20 nM; IC50 ([2]; 1 mM MnCl2, read-out: IC50 ± SD, Jurkat cell VCAM-Ig Binding): 8 ± 1 nM; specificity for VLA-4 ([2]; versus α4β7, VLA-5 and gpIIbIIIa): > 10,000 fold
